# Laboratory results as given in patent US10336732B2, “1-heterocyclyl isochromanyl compounds and analogs for treating CNS disorders” (Sunovion Pharmaceuticals Inc., priority 2015, dated 2019).
# Tested on: mice
# Test: Neuropharmacological assay (SmartCube), behavioral signature of compound-treated mice
# Type: in vivo
# Details: i.p. 15 min before behavioral test, most efficacious dose(s) of 3 doses
# Method in brief: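 Read-out is an automated video-based behavioral signature, scored as per-class probabilities (e.g., anxiolytic, antidepressant) against reference compounds. Dosing was i.p. at three doses, 15 min pre-test, in NMP, polyethylene glycol and propylene glycol. Values shown are from the most efficacious dose(s).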
Structure (SMILES),AD: ADHD (probability that behavioral signature matches class),AG: analgesic (probability that behavioral signature matches class),AX: anxiolytic (probability that behavioral signature matches class),CE: cognitive enhancer (probability that behavioral signature matches class),DP: anti-depressant (probability that behavioral signature matches class),HA: hallucinogen (probability that behavioral signature matches class),MS: mood stabilizer (probability that behavioral signature matches class),PS: anti-psychotic (probability that behavioral signature matches class),SD: sedative hypnotic (probability that behavioral signature matches class),UN: uncharacterized CNS activity (probability that behavioral signature matches class)
"N#Cc1ccc2c(c1)CCO[C@@H]2[C@H]1CCCN1 [Compound I-46, (S)-1-((R)-pyrrolidin-2-yl)isochroman-6-carbonitrile]",+ (LOQ ≤ + <5%),++ (5% ≤ ++ <25%),++ (5% ≤ ++ <25%),++ (5% ≤ ++ <25%),++ (5% ≤ ++ <25%),+ (LOQ ≤ + <5%),+ (LOQ ≤ + <5%),++++ (50% ≤ ++++),++ (5% ≤ ++ <25%),+ (LOQ ≤ + <5%)
"Fc1cccc2c1CCO[C@@H]2[C@@H]1CCCN1 [Compound I-14, (S)-2-((S)-5-fluoroisochroman-1-yl)pyrrolidine]",+ (LOQ ≤ + <5%),++ (5% ≤ ++ <25%),++ (5% ≤ ++ <25%),++ (5% ≤ ++ <25%),+++ (25% ≤ +++ <50%),+ (LOQ ≤ + <5%),++ (5% ≤ ++ <25%),+++ (25% ≤ +++ <50%),+ (LOQ ≤ + <5%),+ (LOQ ≤ + <5%)
"Fc1ccc2c(c1)[C@H]([C@H]1CCCN1)OCCC2 [Compound I-109, (R)-2-((R)-8-fluoro-1,3,4,5-tetrahydrobenzo[c]oxepin-1-yl)pyrrolidine]",+ (LOQ ≤ + <5%),++ (5% ≤ ++ <25%),++ (5% ≤ ++ <25%),+ (LOQ ≤ + <5%),+++ (25% ≤ +++ <50%),+ (LOQ ≤ + <5%),++ (5% ≤ ++ <25%),++ (5% ≤ ++ <25%),++ (5% ≤ ++ <25%),++ (5% ≤ ++ <25%)
"CC1(C)CN[C@H]([C@@H]2OCCc3ccccc32)C1 [Compound I-59, (S)-2-((R)-isochroman-1-yl)-4,4-dimethylpyrrolidine]",+ (LOQ ≤ + <5%),+ (LOQ ≤ + <5%),++ (5% ≤ ++ <25%),++ (5% ≤ ++ <25%),++ (5% ≤ ++ <25%),+ (LOQ ≤ + <5%),++ (5% ≤ ++ <25%),++ (5% ≤ ++ <25%),+ (LOQ ≤ + <5%),+ (LOQ ≤ + <5%)

# Same assay, conditions: i.p. 15 min before behavioral test, most efficacious dose(s) of 3 doses
row,Structure (SMILES),XG: anxiogenic (probability that behavioral signature matches class)
1,"N#Cc1ccc2c(c1)CCO[C@@H]2[C@H]1CCCN1 [Compound I-46, (S)-1-((R)-pyrrolidin-2-yl)isochroman-6-carbonitrile]",+ (LOQ ≤ + <5%)
2,"Fc1cccc2c1CCO[C@@H]2[C@@H]1CCCN1 [Compound I-14, (S)-2-((S)-5-fluoroisochroman-1-yl)pyrrolidine]",+ (LOQ ≤ + <5%)
3,"Fc1ccc2c(c1)[C@H]([C@H]1CCCN1)OCCC2 [Compound I-109, (R)-2-((R)-8-fluoro-1,3,4,5-tetrahydrobenzo[c]oxepin-1-yl)pyrrolidine]",+ (LOQ ≤ + <5%)
4,"CC1(C)CN[C@H]([C@@H]2OCCc3ccccc32)C1 [Compound I-59, (S)-2-((R)-isochroman-1-yl)-4,4-dimethylpyrrolidine]",+ (LOQ ≤ + <5%)
